pEC50, pIC50: −log10 of the molar value. Calls of active or inactive are those of the source.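 Rule for the calls: active = compounds giving half or more protection of infected cells from virus-caused growth loss, again on retest; inactive = the rest.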 Where a SMILES comes first, the peptide text is derived from it. Bridges are numbered along the chain shown (N, C = ends). Roman numbers before positions name the chains, in order.
System: CEM cells HIV-1 protection, formazan growth assay
Assay: NCI AIDS Antiviral Assay
Settings: for pIC50: measured here: growth of uninfected CEM cells
Summary of the method: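 Protection of CEM cells against HIV-1 measured as cell growth via soluble formazan read-out, with five concentrations tested on both infected and uninfected cells; failure to protect may reflect toxicity.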

SMILES	pEC50	pIC50	outcome
S=c1cn[nH]c2c(Br)cccc12	< 4.05	4.17	–
C[Si](C)(C)O[C@@H]1CCCC1N (some centres not stated)	–	–	inactive
CCOC(=O)c1c2cccccc2n2c(=O)cc(C)nc12	–	–	inactive
COc1ccc(C2NC3=C(CCCC3)N2)cc1	< 3.81	4.58	–
CCOC(=O)[C@@H]1ON2OC(OC3CCCC3(c3ccccc3)c3ccccc3)C(OC(C)=O)[C@H]3OC(=O)[C@@H]1C32 (some centres not stated)	< 3.70	< 3.70	–
Cc1ccc(SCC(OCn2cnc3c(Cl)nc(N)nc32)[C@H](C)F)cc1 (some centres not stated)	< 3.70	4.62	–
O=C(O)C(=O)O	< 3.37	< 3.37	–
CC(C)(CN1CCCCC1)C(=O)CC(SCCN)c1ccc(Cl)cc1 (configuration not stated)	< 3.63	4.90	–
COc1cc2c(c(C3(O)C(=O)N(C)c4ccccc43)c1OC)OCO2 (configuration not stated)	< 3.70	< 3.70	–
CC(C)OP(=O)(CCC(=O)C1(O)CCC2C3CCC4=CC(=O)CCC4(C)C3CCC21C)OC(C)C (configuration not stated)	< 3.70	4.49	–
O=C1c2ccccc2C(=O)C1C(c1ccc([N+](=O)[O-])cc1)C1C(=O)c2ccccc2C1=O	< 5.35	< 5.35	–
Cc1ccc(N=C2C(c3ccccc3)=C(SC3=C(c4ccccc4)C(=Nc4ccc(C)cc4)c4ccccc43)c3ccccc32)cc1	< 3.70	3.76	–
COc1cc([C@@H]2c3cc4c(cc3[C@@H](OC3OC5CO[C@@H](c6cccs6)OC5C(O)C3O)[C@H]3COC(=O)[C@H]23)OCO4)cc(OC)c1O (some centres not stated)	< 6.40	8.76	–
CCOC(=O)C(Cc1ccccc1)NC(=O)c1[nH]cnc1/N=N/N(C)C (configuration not stated)	< 3.16	3.45	–
COc1ccc(/C=C2\CCC(C)C3C2=NN(c2ccccc2)C3c2ccc(OC)c(OC)c2)cc1OC (configuration not stated)	< 3.70	5.30	–
NCC(=O)Nc1ccc(S(=O)(=O)O)c2cc(S(=O)(=O)O)cc(S(=O)(=O)O)c12	< 3.70	< 3.70	–
O=C1NC(=O)C(=Cc2ccc3c(c2)OCO3)C(=O)N1	< 4.84	< 4.84	–
Nc1ncnc2c1ncn2C1C=CC(CO)CC1 (configuration not stated)	< 3.70	< 3.70	–
OCC1OC(n2cnc(C3=NCCCN3)n2)C(O)C1O (configuration not stated)	–	–	inactive
CC(=O)OC1COC(Nc2nc(N)n(C)c(=O)c2N=O)C(OC(C)=O)C1OC(C)=O (configuration not stated)	< 3.70	< 3.70	–

SMILES	pEC50	pIC50	outcome
COC(=O)N1CC2CC=CC(C2)c2ccccc21 (configuration not stated)	< 3.69	< 3.69	–
CN=C(c1ccc(NC(=O)c2ccc(C(=O)Nc3ccc(C(=NC)N4CCOCC4)cc3)c(Cl)c2)cc1)N1CCOCC1	< 3.70	< 3.70	–
COc1cc(C2c3cc4c(cc3OC(Nc3ccccc3)C2C)OCO4)cc(OC)c1O (configuration not stated)	–	–	inactive
CC/C(=N\NS(=O)(=O)c1ccccc1)c1ccccc1	–	–	inactive
CC(=O)O/C(=C(/C#N)C(=O)O)C1C(C(=O)O)C(c2ccccc2[N+](=O)[O-])C=C(c2ccco2)N1c1ccncc1 (configuration not stated)	< 4.70	5.62	–
O=C1N[C@H]2CS(=O)(=O)C[C@H]2N1	< 3.70	< 3.70	–
COc1ccc2c(c1)C(N)=C(c1ccccc1)C2=O	< 3.70	4.12	–
N#C/C(=C\NC(=S)N=Nc1c(O)[nH]c2ccccc12)C(=O)c1ccc2ccccc2c1	< 3.70	3.92	–
O=C1c2ccccc2-c2nnc(-c3ccccc3)cc21	< 4.00	5.08	–
CSC1=NN(C(C)=O)C(C(OC(C)=O)C(OC(C)=O)C(OC(C)=O)C(COC(C)=O)OC(C)=O)S1 (configuration not stated)	–	–	inactive
Cc1oc2nc(N(C)C)n3cnnc3c2c1C	–	–	inactive
COc1ccc(C(=O)c2ccc(OC)c(S(=O)(=O)N(C)C)c2)cc1S(=O)(=O)N(C)C	< 4.10	< 4.10	–
CC(C)C1CCC2(C)CC3C(CO)CC(O)C3C(C)(O)C/C=C/12 (configuration not stated)	–	–	inactive
O=[N+]([O-])C(=C/c1cccs1)/C(=C\c1cccs1)[N+](=O)[O-]	< 3.70	5.81	–
COc1ccc(OC)c(C(Nc2ccc3cn[nH]c3c2)P(=O)(c2ccccc2)c2ccccc2)c1 (configuration not stated)	–	–	inactive
CC1OC(OC2C(O)C(O)C(N=C(N)N)C(O)C2N=C(N)N)C(OC2OC(CO)C(O)C(O)C2N(C)C=N)C1(O)CO (configuration not stated)	–	–	inactive
CC12CC1C(c1cccc([N+](=O)[O-])c1)(c1cccc([N+](=O)[O-])c1)N=N2 (configuration not stated)	< 3.70	4.87	–
C=Cc1ccncc1	< 3.70	< 3.70	–
O=C1NN=C(c2c[nH]c3ccccc23)CC1NCc1ccccc1 (configuration not stated)	< 3.70	< 3.70	–
Cc1nc2cnc(Nc3ccccc3)nc2n(-c2ccccc2)c1=O	< 3.70	< 3.70	–

SMILES	pEC50	pIC50	outcome
O=C1C(=C(C(F)(F)Cl)C(F)(F)Cl)C2CCC1C2 (configuration not stated)	–	–	inactive
O=C(O)/C=C/C(=O)Nc1ccccc1	< 3.70	< 3.70	–
O=C1C2C3C=C4c5ccccc5N(c5ccccc5)C4(C2C(=O)N1c1ccc([N+](=O)[O-])cc1)[C@H]1C(=O)N(c2ccc([N+](=O)[O-])cc2)C(=O)[C@@H]31 (some centres not stated)	< 4.96	< 4.96	–
Cc1ccc(SC2C(C)(C)N(C(C)C)P2(=O)N(C(C)C)C(C)C)cc1 (configuration not stated)	< 5.01	< 5.01	–
O=C(N/C(=C\c1cccc([N+](=O)[O-])c1)c1nc2ccc([N+](=O)[O-])cc2[nH]1)c1ccccc1	–	–	inactive
O=C(n1[nH]c(=O)n(-c2ccc([N+](=O)[O-])cc2)c1=O)C(Cl)(Cl)Cl	< 3.70	< 3.70	–
O=[N+]([O-])c1ccc(-n2nnc3ccccc32)nc1	< 3.70	< 3.70	–
COC1=C(C(=O)O)P(C)(=O)CC1 (configuration not stated)	< 3.67	< 3.67	–
CC(=N\N=C\c1ccccn1)/C(C)=N/N=C/c1ccccn1	< 4.00	4.85	–
C[N+]12CCCCC1C(COc1cccc3cccnc13)CCC2 (configuration not stated)	< 3.70	3.93	–
CC1=NC(C)(COC(=O)C2(C)NC(C)(CO)CO2)COC1=O (configuration not stated)	< 3.70	< 3.70	–
CCOC(=O)c1ccc(CS(=O)(=O)c2ccc([N+](=O)[O-])cc2)c([N+](=O)[O-])c1	< 4.04	4.22	–
Cc1nc(C)c(N2CCN(Cc3ccccc3)CC2)c(=O)[nH]1	< 3.70	< 3.70	–
COc1ccc(C2C3=C(COC3=O)Oc3cc4c(cc32)OCO4)c(OC)c1 (configuration not stated)	< 3.70	4.91	–
CC1OS(=O)(=O)CS(=O)(=O)OC1C (configuration not stated)	< 2.97	2.99	–
CC(=O)Nc1ccc(C(=O)NN2C(=O)C(Cl)C2c2ccc(O)cc2)cc1 (configuration not stated)	< 3.70	< 3.70	–
c1ccc(SC(CNCCc2ccco2)c2ccc3c(c2)OCO3)cc1 (configuration not stated)	< 3.70	4.57	–
NC(CSSCC(N)C(=O)NC(Cc1ccccc1)C(=O)O)C(=O)NC(Cc1ccccc1)C(=O)O (stereo not drawn) (I: H-Cys-Phe-OH / II: H-Cys-Phe-OH; disulfide I:1-II:1; configuration not given here)	< 3.70	< 3.70	–
CC(=O)O[C@]12CCC[C@H]1C1(O)C(O)CCC[C@H]12 (some centres not stated)	< 3.70	< 3.70	–
Cc1ccc2c(c1)CN(C(=O)CCC(=O)OCc1ccccc1)c1ccc(C)cc1CN2C(=O)CCC(=O)OCc1ccccc1	–	–	inactive

Reference: PubChem BioAssay AID179 (DTP/NCI, 2004)
